Assay results: ChEMBL document CHEMBL1909046, “DrugMatrix in vitro pharmacology data”

Columns and labels:
[1] = DRUGMATRIX: Tumor Necrosis Factor (TNF), Non-Selective radioligand binding (ligand: [125I] TNF-alpha); assay type: cell membranes, Membrane; conditions: u-937; Not Active = under 50% inhibition at 10 µM
[2] = target: Tyrosine-protein kinase Lck (Homo sapiens, UniProt P06239); assay: DRUGMATRIX: Protein Tyrosine Kinase, LCK enzyme inhibition (substrate: Poly(Glu:Tyr)); assay type: cell-based, Insect cells; conditions: insect cells; Not Active = under 50% inhibition at 10 µM
[3] = target: Cannabinoid receptor 1 (Homo sapiens, UniProt P21554); assay type: cell membranes, Chem-1, Membrane; conditions: chem-1; note: in other assays of this panel Not Active means under 50% inhibition at 10 µM
[4] = target: Delta-type opioid receptor (Homo sapiens, UniProt P41143); assay type: cell membranes, HEK293, Membrane; conditions: hek293; note: in other assays of this panel Not Active means under 50% inhibition at 10 µM
[5] = target: T1, Adenosine receptor A3 (Homo sapiens, UniProt P0DMS8); assay type: cell membranes, CHO-K1, Membrane; conditions: cho-k1;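 note: radioligand binding assay with AB-MECA serving as the labeled ligand; in other assays of this panel Not Active means under 50% inhibition at 10 µM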
T1 sequence (P0DMS8 whole entry): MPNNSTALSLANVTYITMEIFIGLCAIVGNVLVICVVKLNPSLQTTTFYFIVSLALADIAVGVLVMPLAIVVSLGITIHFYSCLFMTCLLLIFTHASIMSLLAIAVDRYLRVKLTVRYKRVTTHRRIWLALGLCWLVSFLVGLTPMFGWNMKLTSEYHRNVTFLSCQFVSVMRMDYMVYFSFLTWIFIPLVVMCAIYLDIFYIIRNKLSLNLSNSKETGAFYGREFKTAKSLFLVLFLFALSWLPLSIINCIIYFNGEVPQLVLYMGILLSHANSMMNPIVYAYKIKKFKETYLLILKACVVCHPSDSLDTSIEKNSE

[6] = DRUGMATRIX: Atrial Natriuretic Factor (ANF) radioligand binding (ligand: [125I] ANF (rat)); assay type: cell membranes, Cavia porcellus, Dunkin-Hartley, Adrenal gland, Membrane; conditions: Not Active = under 50% inhibition at 10 µM
[7] = target: T2, Angiotensin-converting enzyme (Oryctolagus cuniculus, UniProt P12822); assay: biochemical; assay type: tissue-based, Lung;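 note: enzymatic inhibition of angiotensin-converting enzyme measured with FAPGG as the substrate; in other assays of this panel Not Active means under 50% inhibition at 10 µM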
T2 sequence (P12822 whole entry): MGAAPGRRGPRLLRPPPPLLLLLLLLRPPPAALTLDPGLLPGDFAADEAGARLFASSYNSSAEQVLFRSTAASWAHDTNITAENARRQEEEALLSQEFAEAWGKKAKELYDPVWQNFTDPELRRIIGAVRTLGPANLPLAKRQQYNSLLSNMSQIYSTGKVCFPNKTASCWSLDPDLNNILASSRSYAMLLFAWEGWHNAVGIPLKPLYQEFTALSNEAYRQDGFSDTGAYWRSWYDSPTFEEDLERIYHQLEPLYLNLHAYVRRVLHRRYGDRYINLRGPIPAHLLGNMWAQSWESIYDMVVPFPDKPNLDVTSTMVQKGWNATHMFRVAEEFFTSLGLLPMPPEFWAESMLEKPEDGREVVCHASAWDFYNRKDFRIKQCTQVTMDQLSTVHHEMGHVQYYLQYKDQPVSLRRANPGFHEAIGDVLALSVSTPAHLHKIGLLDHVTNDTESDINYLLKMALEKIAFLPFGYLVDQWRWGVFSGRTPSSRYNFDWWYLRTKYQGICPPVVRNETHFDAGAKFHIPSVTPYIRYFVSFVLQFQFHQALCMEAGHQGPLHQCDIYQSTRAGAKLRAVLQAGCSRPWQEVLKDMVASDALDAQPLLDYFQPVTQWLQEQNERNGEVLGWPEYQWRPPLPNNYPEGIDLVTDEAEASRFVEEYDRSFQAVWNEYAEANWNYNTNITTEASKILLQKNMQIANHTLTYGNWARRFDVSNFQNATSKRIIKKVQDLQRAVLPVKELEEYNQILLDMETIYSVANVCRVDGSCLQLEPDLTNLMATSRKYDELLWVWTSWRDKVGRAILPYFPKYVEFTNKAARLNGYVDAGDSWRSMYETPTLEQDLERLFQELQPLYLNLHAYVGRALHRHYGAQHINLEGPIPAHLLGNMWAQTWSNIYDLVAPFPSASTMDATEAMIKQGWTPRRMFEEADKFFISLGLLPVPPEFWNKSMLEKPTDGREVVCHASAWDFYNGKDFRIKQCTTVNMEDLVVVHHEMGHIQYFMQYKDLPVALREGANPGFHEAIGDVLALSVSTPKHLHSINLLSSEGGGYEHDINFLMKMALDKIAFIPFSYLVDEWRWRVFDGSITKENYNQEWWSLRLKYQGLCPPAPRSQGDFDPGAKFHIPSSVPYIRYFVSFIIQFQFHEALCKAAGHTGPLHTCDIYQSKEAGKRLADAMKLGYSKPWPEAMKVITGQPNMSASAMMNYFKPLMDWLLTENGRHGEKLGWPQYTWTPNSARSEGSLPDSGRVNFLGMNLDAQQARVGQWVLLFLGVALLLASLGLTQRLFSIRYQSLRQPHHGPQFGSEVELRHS

[8] = target: T3, B2 bradykinin receptor (Homo sapiens, UniProt P30411); assay type: cell membranes, Membrane; conditions: chem-1; note: in other assays of this panel Not Active means under 50% inhibition at 10 µM
T3 sequence (P30411 whole entry): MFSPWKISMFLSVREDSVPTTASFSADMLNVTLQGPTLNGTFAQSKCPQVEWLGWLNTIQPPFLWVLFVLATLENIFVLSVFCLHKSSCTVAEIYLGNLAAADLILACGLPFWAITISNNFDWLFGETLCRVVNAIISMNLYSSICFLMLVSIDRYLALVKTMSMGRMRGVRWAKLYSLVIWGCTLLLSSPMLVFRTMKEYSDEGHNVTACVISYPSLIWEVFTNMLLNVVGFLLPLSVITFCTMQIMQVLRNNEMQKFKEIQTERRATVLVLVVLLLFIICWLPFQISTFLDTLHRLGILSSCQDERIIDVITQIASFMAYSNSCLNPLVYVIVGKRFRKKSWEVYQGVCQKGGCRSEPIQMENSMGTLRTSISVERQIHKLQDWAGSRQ

Chain of Cannabinoid receptor 1 (P21554 whole entry): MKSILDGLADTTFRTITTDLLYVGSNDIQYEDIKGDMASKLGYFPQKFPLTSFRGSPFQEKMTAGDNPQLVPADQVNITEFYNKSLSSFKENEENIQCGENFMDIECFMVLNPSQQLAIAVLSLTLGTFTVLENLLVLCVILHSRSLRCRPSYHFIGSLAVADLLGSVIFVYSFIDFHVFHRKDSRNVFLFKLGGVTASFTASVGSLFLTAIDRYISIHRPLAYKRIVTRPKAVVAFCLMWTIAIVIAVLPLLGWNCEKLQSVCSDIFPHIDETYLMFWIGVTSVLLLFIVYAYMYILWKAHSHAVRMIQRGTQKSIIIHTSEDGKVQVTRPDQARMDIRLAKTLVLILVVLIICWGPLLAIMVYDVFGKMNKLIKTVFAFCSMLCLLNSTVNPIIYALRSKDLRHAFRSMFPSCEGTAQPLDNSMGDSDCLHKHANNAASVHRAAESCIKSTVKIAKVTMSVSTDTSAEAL
Chain of Delta-type opioid receptor (P41143 whole entry): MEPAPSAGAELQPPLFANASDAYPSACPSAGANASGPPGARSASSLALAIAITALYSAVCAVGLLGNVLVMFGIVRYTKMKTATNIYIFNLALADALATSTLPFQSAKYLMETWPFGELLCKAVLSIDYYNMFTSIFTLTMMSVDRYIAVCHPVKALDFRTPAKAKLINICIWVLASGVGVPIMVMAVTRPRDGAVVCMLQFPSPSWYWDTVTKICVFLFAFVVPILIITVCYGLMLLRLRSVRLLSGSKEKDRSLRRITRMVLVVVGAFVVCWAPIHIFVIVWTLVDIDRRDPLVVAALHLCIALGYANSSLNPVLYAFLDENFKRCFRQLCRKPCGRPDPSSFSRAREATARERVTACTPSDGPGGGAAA
Chain of Tyrosine-protein kinase Lck (P06239 whole entry): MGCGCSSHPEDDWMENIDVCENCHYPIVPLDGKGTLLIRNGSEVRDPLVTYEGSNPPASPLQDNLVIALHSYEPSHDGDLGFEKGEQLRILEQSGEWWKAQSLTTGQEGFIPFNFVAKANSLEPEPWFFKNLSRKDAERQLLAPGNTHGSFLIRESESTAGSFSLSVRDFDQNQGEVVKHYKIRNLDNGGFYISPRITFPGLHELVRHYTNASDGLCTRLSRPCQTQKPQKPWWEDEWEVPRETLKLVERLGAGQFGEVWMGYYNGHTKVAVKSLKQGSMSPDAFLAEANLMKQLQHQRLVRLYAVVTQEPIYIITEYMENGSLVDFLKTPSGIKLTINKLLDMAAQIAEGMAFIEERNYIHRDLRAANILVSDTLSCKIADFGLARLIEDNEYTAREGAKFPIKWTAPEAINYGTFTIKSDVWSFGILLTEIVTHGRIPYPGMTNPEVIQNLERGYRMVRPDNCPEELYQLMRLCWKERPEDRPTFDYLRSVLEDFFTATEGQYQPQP

CCN(CC)CCNC(=O)c1cc(Cl)c(N)cc1OC [METOCLOPRAMIDE]
Not Active: IC50 [1] | Ki [1] | IC50 [2] | IC50 [3] | IC50 [4] | IC50 [5] | IC50 [6] | Ki [6] | IC50 [7] | IC50 [8]

Cc1nnc(NS(=O)(=O)c2ccc(N)cc2)s1 [SULFAMETHIZOLE]
Not Active: IC50 [1] | Ki [1] | IC50 [2] | IC50 [3] | IC50 [4] | IC50 [5] | IC50 [6] | Ki [6] | IC50 [7] | IC50 [8]

CC#C[C@]1(O)CC[C@H]2[C@@H]3CCC4=CC(=O)CCC4=C3[C@@H](c3ccc(N(C)C)cc3)C[C@@]21C [MIFEPRISTONE]
Not Active: IC50 [1] | Ki [1] | IC50 [2] | IC50 [3] | IC50 [4] | IC50 [5] | IC50 [6] | Ki [6] | IC50 [7] | IC50 [8]

CS(=O)(=O)c1ccc(C2=C(c3ccccc3)C(=O)OC2)cc1 [ROFECOXIB]
Not Active: IC50 [1] | Ki [1] | IC50 [2] | IC50 [3] | IC50 [4] | IC50 [5] | IC50 [6] | Ki [6] | IC50 [7] | IC50 [8]

CC1(C)[C@H](C(=O)O)N2C(=O)C[C@H]2S1(=O)=O [SULBACTAM]
Not Active: IC50 [1] | Ki [1] | IC50 [2] | IC50 [3] | IC50 [4] | IC50 [5] | IC50 [6] | Ki [6] | IC50 [7] | IC50 [8]

CO[C@@H]1[C@@H](OC)[C@H](C)[C@@](O)(CC(=O)O)O[C@H]1[C@H](C)[C@H]1O[C@@]2(CC[C@@](C)([C@H]3CC[C@@](C)([C@@H]4O[C@@H]([C@H]5O[C@](C)(O)[C@H](C)C[C@@H]5C)C[C@@H]4O[C@@H]4C[C@H](OC)[C@@H](OC)[C@H](C)O4)O3)O2)C[C@H](O)[C@H]1C.N [MADURAMICIN]
Not Active: IC50 [1] | Ki [1] | IC50 [2] | IC50 [3] | IC50 [4] | IC50 [5] | IC50 [6] | Ki [6] | IC50 [7] | IC50 [8]

LEAD(IV) ACETATE
Not Active: IC50 [1] | Ki [1] | IC50 [2] | Ki [2] | IC50 [3] | Ki [3] | IC50 [4] | Ki [4] | IC50 [5] | Ki [5] | IC50 [6] | Ki [6] | IC50 [7] | Ki [7] | IC50 [8] | Ki [8]

O=C(c1ccccc1)c1ccc2n1CCC2C(=O)O (stereo unspecified) [KETOROLAC]
Not Active: IC50 [1] | Ki [1] | IC50 [2] | IC50 [3] | IC50 [4] | IC50 [5] | IC50 [6] | Ki [6] | IC50 [7] | IC50 [8]

CC[C@H](C)[C@@H](CO[C@@H](Cc1ccccc1)C(=O)N[C@@H](CCS(C)(=O)=O)C(=O)OC(C)C)NC[C@@H](N)CS
Not Active: IC50 [1] | Ki [1] | IC50 [2] | IC50 [3] | IC50 [4] | IC50 [5] | IC50 [6] | Ki [6] | IC50 [7] | IC50 [8]
